Key:
Format in all cases: in vivo
δSgcd−/− mouse model [1] = test: Cardiac function by echocardiography in δSgcd−/− mouse model; conditions: older-aged sgcd−/− mice, echocardiography (FIG. 3)
Experimental: The effect of C21 was evaluated in a δSgcd−/− mouse model, which is a genetically modified model to imitate limb-girdle muscular dystrophy (LGMD). […] Data from conscious mice were collected during the last week of treatment. At the end of the experiment, tissues were harvested for histopathology and molecular gene expression measurements.
Echocardiography was performed in telemeter-implanted mice using Philips Sonos 5500 clinical imager in mice sedated with midazolam.

δSgcd−/− mouse model [2] = test: Spontaneous locomotor activity by radiotelemetry in δSgcd−/− mouse model; conditions: sgcd−/− mice, C21 0.03 mg/kg/day SC osmotic minipump for eight weeks (FIG. 2)
Experimental: (§1) The effect of C21 was evaluated in a δSgcd−/− mouse model, which is a genetically modified model to imitate limb-girdle muscular dystrophy (LGMD). At 3 weeks of age, δSgcd−/− mice and control mice were administrated C21 (0.03 mg/kg/day, osmotic minipump, SC) or vehicle for eight weeks. Data from conscious mice were collected during the last week of treatment. At the end of the experiment, tissues were harvested for histopathology and molecular gene expression measurements.
(§2) A radiotelemetry probe (PC10-DSI) that enabled measurement of arterial blood pressure (BP), heart rate (HR) and locomotor activity was inserted into the thoracic aorta through the left common carotid artery under 2% isoflurane anesthesia when the mice were 9 weeks of age. When the mice reached 11-12 weeks of age, changes in BP, HR, and locomotor activity were measured over a minimum of 24 hours at a sampling rate of 500 Hz. In addition, BP was continuously recorded at a high sampling frequency of 2000 Hz for 1-2 hours, to collect data for assessment of spontaneous baroreflex sensitivity (sequence technique), sympathetic tone (HR changes with propranolol) and vagal tone (HR changes with methylatropine).

δSgcd−/− mouse model [3] = test: Autonomic function by radiotelemetry in δSgcd−/− mouse model of limb-girdle muscular dystrophy; conditions: Sgcd−/− mice, C21 0.03 mg/kg/day SC osmotic minipump for eight weeks
Experimental: as §1, §2

Question: How did the “cardiac function measured as end diastolic volume, end systolic volume and ejection fraction” value (δSgcd−/− mouse model [1]) turn out when `CCCCOC(=O)NS(=O)(=O)c1sc(CC(C)C)cc1-c1ccc(Cn2ccnc2)cc1` [Compound C21, N-butyloxycarbonyl-3-(4-imidazol-1-ylmethylphenyl)-5-iso-butylthiophene-2-sulfonamide] was run?
Answer: improved the cardiac function

Question: What about the spontaneous locomotor activity (δSgcd−/− mouse model [2]) of the same molecule?
Answer: increased the spontaneous locomotor activity to levels comparative to control animals

Question: What about the baroreflex sensitivity (δSgcd−/− mouse model [3]; compared to sgcd−/− placebo treated mice (FIG. 1)) of the same molecule?
Answer: increase

Question: And the vagal tone (δSgcd−/− mouse model [3]; compared to sgcd−/− placebo treated mice, HR changes with methylatropine (FIG. 1))?
Answer: increase

Question: What about the sympathetic tone (δSgcd−/− mouse model [3]; compared to sgcd−/− placebo treated mice, HR changes with propranolol (FIG. 1)) of the same molecule?
Answer: decreased

— patent US11931341B2, “Compositions and methods for the treatment and prevention of muscular dystrophy” (University of Iowa Research Foundation, priority 2018, dated 2024)
